Patent US20110104159A1, “COMPOSITIONS AND METHODS FOR TREATING, CONTROLLING, REDUCING, AMELIORATING, OR PREVENTING ALLERGY” (priority 2006, published 2011)
“And” between values parts separate entries of the source, which are not always exact repeats. Equal values may be shown once.

System: MPO
Experiment: Myeloperoxidase (MPO) activity in iris-ciliary body
Assay type: in vivo, Rabbit
Conditions: for MPO activity in iris-ciliary body, statistical comparison with CTR: p<0.001; for Mean MPO Unit/g (MPO activity in iris-ciliary body samples): group mean, after the second paracentesis; for MPO Unit/g (raw data of MPO activity in iris-ciliary body samples): individual eyes (DX/SX) of rabbits, samples collected after the second paracentesis, listed as BOL
Procedure: 2.3.2.1 Phosphate Buffer (50 mM; pH=6)
3.9 g of NaH2PO4 2H2O were dissolved in a volumetric flask to 500 ml with water. The pH was adjusted to pH=6 with 3N NaOH.
0.5 g of hexa-decyl-trimethyl-ammonium bromide was dissolved in 100 ml phosphate buffer.
The solution was prepared freshly. Ten microliters of H2O2 (30 wt. %) were diluted to 1 ml with water (solution A). 7.5 mg o-dianisidine 2HCl were dissolved in 45 ml of phosphate buffer and 75 μl of solution A were added.
Each rabbit was placed in a restraint device and tagged with the alphanumeric code. The formulations were instilled (50 μl) into the conjunctival sac of both eyes 180, 120, 90 and 30 min before the first paracentesis; then 15, 30, 90 min after the first paracentesis. To perform the first paracentesis the animals were anaesthetized by intravenous injection of 5 mg/kg Zoletil® (Virbac; 2.5 mg/kg tiletamine HCl and 2.5 mg/kg zolazepam HCl) and one drop of local anesthetic (Novesina®, Novartis) was administered to the eye. Anterior chamber paracentesis was performed with a 26 G needle attached to a tuberculin syringe; the needle was introduced into the anterior chamber through the cornea, taking care not to damage the tissues. Two hours after the first paracentesis, the animals were sacrificed with 0.4 ml Tanax® (Intervet International B.V.) and the second paracentesis was performed. About 100 μl of aqueous humor were removed at the second paracentesis. Aqueous humor was immediately split in four aliquots and stored at −80° C. until analysis. Then both eyes were enucleated and the iris-ciliary body was carefully excised, placed in polypropylene tubes, and stored at −80° C. until analysis.
The activity of MPO was measured as previously described by Williams et al. The iris-ciliary bodies were carefully dried, weighed and immersed in 1 ml of hexa-decyl-trimethyl-ammonium bromide solution. Then, the samples were sonicated for 10 sec on ice by a ultrasound homogenizer (HD 2070, Bandelin electronic), freeze-thawed three times, sonicated for 10 sec and centrifuged at 14,000 g for 10 min to remove cellular debris. An aliquot of the supernatant (40-200 μl) was diluted to 3 ml with the o-dianisidine 2HCl/H2O2 solution. The change in absorbance at 460 nm was continuously monitored for 5 min by a spectrophotometer (UV/Vis Spectrometer Lambda EZ 201; Perkin Elmer). The slope of the line (Δ/min) was determined for each sample and used to calculate the number of units of MPO in the tissue as follows:
where ε=11.3 mM^−1. Values were expressed as units of MPO/g of tissue.

Cc1ccc2c(NC[C@](O)(CC(C)(C)c3cc(F)cc4c3OCC4)C(F)(F)F)cccc2n1 [BOL-303242-X, (R)-1,1,1-Trifluoro-4-(5-fluoro-2,3-dihydrobenzofuran-7-yl)-4-methyl-2-{[(2-methyl-5-quinolyl)amino]methyl}pentan-2-ol]
MPO activity in iris-ciliary body, statistical comparison with CTR (0.1% topical): statistical significance
Mean MPO Unit/g (MPO activity in iris-ciliary body samples) (0.1% treatment): 0.971 Unit/g
MPO Unit/g (raw data of MPO activity in iris-ciliary body samples) (0.1% treatment): 1.04 Unit/g and 1.00 Unit/g and 1.14 Unit/g and 1.06 Unit/g and 1.22 Unit/g and 0.61 Unit/g and 1.05 Unit/g and 0.65 Unit/g
MPO activity in iris-ciliary body, statistical comparison with CTR (0.5% topical): statistical significance
Mean MPO Unit/g (MPO activity in iris-ciliary body samples) (0.5% treatment): 0.775 Unit/g
MPO Unit/g (raw data of MPO activity in iris-ciliary body samples) (0.5% treatment): 0.85 Unit/g and 0.93 Unit/g and 0.79 Unit/g and 1.03 Unit/g and 0.75 Unit/g and 0.74 Unit/g and 0.54 Unit/g and 0.58 Unit/g
MPO activity in iris-ciliary body, statistical comparison with CTR (1% topical): statistical significance
Mean MPO Unit/g (MPO activity in iris-ciliary body samples) (1% treatment): 0.542 Unit/g
MPO Unit/g (raw data of MPO activity in iris-ciliary body samples) (1% treatment): 0.66 Unit/g and 0.68 Unit/g and 0.49 Unit/g and 0.40 Unit/g and 0.34 Unit/g and 1.02 Unit/g and 0.31 Unit/g and 0.43 Unit/g
